Test results as given in patent US4474764A, “3-Amino-2-hydroxy-4-phenylbutanoic acid derivatives and pharmaceutical composition containing the same” (Zaidan Hojin Biseibutsu Kagaku Kenkyu Kai, priority 1981, dated 1984).

What was measured:
enkephalinase = target: T1, enkephalinase (Rattus norvegicus, UniProt P07861); test: Inhibitory activity against enkephalinase (Test 1); type: biochemical; conditions: enkephalinase from corpus striatum of rat brain; substrate methionine-enkephaline; 37° C., 1 hour; pH 7.7
T1 construct: homogenizing corpus striatum of rat brain and by partial purification of the brain homogenate; from tissue; host or cells: rat brain corpus striatum, homogenate partially purified by the method of Gorenstein et al
T1 sequence (P07861 1-750): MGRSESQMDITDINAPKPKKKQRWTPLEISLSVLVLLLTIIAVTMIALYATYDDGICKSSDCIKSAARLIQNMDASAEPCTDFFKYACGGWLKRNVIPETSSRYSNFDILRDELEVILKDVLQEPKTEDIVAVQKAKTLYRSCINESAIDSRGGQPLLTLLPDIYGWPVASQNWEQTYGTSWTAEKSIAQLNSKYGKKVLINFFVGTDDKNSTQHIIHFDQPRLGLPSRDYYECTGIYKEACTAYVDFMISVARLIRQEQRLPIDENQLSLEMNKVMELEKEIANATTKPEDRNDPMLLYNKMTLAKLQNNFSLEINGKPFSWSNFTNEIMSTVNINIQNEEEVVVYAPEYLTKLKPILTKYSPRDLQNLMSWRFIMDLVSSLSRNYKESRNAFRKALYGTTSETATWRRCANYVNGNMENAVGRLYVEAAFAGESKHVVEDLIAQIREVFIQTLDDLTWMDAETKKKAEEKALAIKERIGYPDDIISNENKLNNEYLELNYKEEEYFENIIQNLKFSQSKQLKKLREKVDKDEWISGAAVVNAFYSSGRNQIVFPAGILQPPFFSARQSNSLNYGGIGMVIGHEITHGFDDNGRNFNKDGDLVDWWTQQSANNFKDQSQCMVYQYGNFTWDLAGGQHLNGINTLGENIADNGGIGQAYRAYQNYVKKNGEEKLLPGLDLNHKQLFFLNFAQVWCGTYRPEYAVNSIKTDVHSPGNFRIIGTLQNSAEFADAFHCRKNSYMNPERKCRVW
Method: Inhibitory activity against enkephalinase were tested.
A preparation of enkephalinase was made by homogenizing corpus striatum of rat brain and by partial purification of the brain homogenate according to the method of Gorenstein et al (see the "Life Science" Vol. 25, 2065~2070 (1979) Pergamon Press, U.S.A.).
A test compound was dissolved in a mixture of Trishydrochloride buffered solution (pH 7.7) and an aqueous 1% Triton X100 (an active surfectant) to such a concentration that the added quantity of the test compound amounted to one-tenth of the volume of said mixture. To the solution of the test compound so prepared was added the enkephalinase, followed by incubation for five minutes at ambient temperature and further by addition of methionine-enkephaline as the substrate. The admixture so obtained was incubated at 37° C. for 1 hour and then subjected to a high-performance liquid chromatography in such a manner that the Tyr-Gly-GLy (a fragment of the methionine-enkephaline) formed by the enzymatic degradation of methionine-enkephaline was isolated in some fractions of the eluate and the quantity of Tyr-Gly-GLy was determined by an electro-chemically analysing detector. In this way, IC50 value of the test compound, namely the dose of the test compound required for 50% inhibition of the enkephalinase was measured.

[1] = tested on: morphine analgesia-non-effective Wistar rats; test: Effect of enhancing morphine analgesia, tail-flick latency (Test 2); type: in vivo, rat; conditions: 250 mg/kg test compound i.p., 10 minutes later 0.5 mg/kg morphine i.p.; versus 0.5 mg/kg morphine alone; tail-flick latency
Method: Effect of enhancing morphine analgesia was tested.
To Wistar rats (10 week-age, male, body weight 250~300 g) was given intraperitoneally morphine at a dose of 0.5 mg/kg, and these rats receiving the morphine were classified into the group of morphine analgesia-effective rats and the group of morphine analgesia-non-effectiverats according to the classification method described in the "Showa Igakukai Zasshi" Vol. 39, No. 5, pages 537~542 (1979). […] The effect of analgesia was evaluated according to the method of tail-flick latency of rats described in the "Showa Igakukai Zasshi" Vol. 39, No. 5, pages 537~542 (1979). The evaluation of pain threshold of rats according to the tail-flick latency method was made as follows: Radiant heat stimulus was applied to the region of the rat tail which positioned 1 cm away from the tail tip and which had been colored black with a black-dye, and the time of latency involved in the tail flick, namely the period of time lapsing between the time of application of the heat stimulus and the time of the reflective flick response of the tail was measured. The quantity of the heat applied was so controlled that the average time of latency of the tail-flick response appearing in the control group of rats (receiving neither the test compound nor the morphine) was about 2.0 seconds. The tests were accomplished as long as the maximum value for the tail-flick latency was 7.0 seconds or less, as otherwise the skin of the rat tail could be damaged by the application of heat. In other words, if the time for the tail-flick latency was longer than 7.0 seconds, the tests were stopped to prevent the damage of the rat tail. The radiant heat stimulus was repeated 5 times for each test rat at an interval of 15 minutes and the times of latency in the flick response of the tail measured in each test were averaged. In each test, 5 rats were used.
The difference in the time of the tail-flick latency between the test rats (receiving 250 mg/kg of the test compound plus 0.5 mg/kg of morphine) and the control rats (receiving 0.5 mg/kg of morphine alone) was calculated, and the effect for enhancement of morphine analgesia was estimated in term of the value of percentages which were calculated by the following equation: [formula]

| Structure (SMILES) | IC50 (enkephalinase) [µM] | Morphine Analgesia enhancement [1] [%] |
| --- | --- | --- |
| C[C@@H](NC=O)C(=O)N[C@H](Cc1ccccc1)[C@H](O)C(=O)[O-].[Na+] [Compound 15, (2S,3R)-3-N--(N'--formyl-(R)-alanyl)amino-2-hydroxy-4-phenylbutanoic acid sodium salt] | 150 | 19.7 |
| NCC[C@H](O)C(=O)N[C@H](Cc1ccccc1)[C@H](O)C(=O)O [Compound 11, (2S,3R)-3-N--[4'-amino-(2'S)--2'-hydroxybutanoyl]amino-2-hydroxy-4-phenylbutanoic acid] | 1280 | 21.6 |
| CC(C)C[C@H](N)C(=O)N[C@H](Cc1ccccc1)[C@H](O)C(=O)O [Compound 8, (2S,3R)-3-N--(S)--leucylamino-2-hydroxy-4-phenylbutanoic acid] | 2560 | 22.5 |
| CNCC(=O)N[C@H](Cc1ccccc1)[C@H](O)C(=O)O [Compound 7, (2S,3R)-3-N--(N'--methylglycyl)amino-2-hydroxy-4-phenylbutanoic acid] | – | 16.2 |
| N[C@H](Cc1ccccc1)[C@H](O)C(=O)N[C@H](Cc1ccccc1)[C@H](O)C(=O)O [Compound 12, (2S,3R)-3-N--[(2'S,3'R)-3'-amino-2'-hydroxy-4'-phenylbutanoyl]amino-2-hydroxy-4-phenylbutanoic acid] | > 20000 | 15.7 |
| COC(=O)[C@@H](O)[C@@H](Cc1ccccc1)NC(=O)CN.Cl [Compound 2, (2S,3R)-3-N--glycylamino-2-hydroxy-4-phenylbutanoic acid methyl ester hydrochloride] | 300 | 11.6 |
| N[C@@H](Cc1ccc(O)cc1)C(=O)NCC(=O)NCC(=O)N[C@@H](Cc1ccccc1)[C@@H](O)C(=O)O [Compound 16, (2R,3S)--3-N--(S)--tyrosylglycylglycylamino-2-hydroxy-4-phenylbutanoic acid] | 440 | 15.2 |
| CC(C)C[C@@H](N)C(=O)N[C@H](Cc1ccccc1)[C@@H](O)C(=O)O [Compound 18, (2R,3R)-3-N--(R)-leucylamino-2-hydroxy-4-phenylbutanoic acid] | 2650 | 23.4 |
| COC(=O)[C@@H](O)[C@@H](Cc1ccccc1)NC(=O)CNC(=O)CN.Cl [Compound 5, (2S,3R)-3-N--glycylglycylamino-2-hydroxy-4-phenylbutanoic acid methyl ester hydrochloride] | 1520 | 19.0 |
| COC(=O)[C@@H](O)[C@@H](Cc1ccccc1)NC(=O)CNC(C)=O [Compound 3, (2S,3R)-3-N--(N'--acetylglycyl)amino-2-hydroxy-4-phenylbutanoic acid methyl ester] | 5480 | 22.9 |
| NCC(=O)N[C@H](Cc1ccccc1)[C@H](O)C(=O)O [Compound 1, (2S,3R)-3-N--glycylamino-2-hydroxy-4-phenylbutanoic acid] | 2780 | 25.7 |
| CC(C)C[C@H](NC(=O)[C@@H](O)[C@H](N)Cc1ccccc1)C(=O)O [Bestatin, (2S,3R)-3-amino-2-hydroxy-4-phenylbutanoyl-(S)-leucine, reference compound] | 590 | 19.9 |
| CC(=O)NCC(=O)NCC(=O)N[C@H](Cc1ccccc1)[C@H](O)C(=O)[O-].[Na+] [Compound 13, (2S,3R)-3-N--(N'--acetylglycylglycyl)amino-2-hydroxy-4-phenylbutanoic acid sodium salt] | – | 33.1 |
| CC(=O)NCC(=O)NCC(=O)N[C@H](Cc1ccccc1)[C@H](O)C(=O)O [Compound 6, (2S,3R)-3-N--(N'--acetylglycylglycyl)amino-2-hydroxy-4-phenylbutanoic acid] | 2450 | 32.5 |
| C[C@@H](N)C(=O)N[C@H](Cc1ccccc1)[C@H](O)C(=O)O [Compound 14, (2S,3R)-3-N--(R)-alanylamino-2-hydroxy-4-phenylbutanoic acid] | 2140 | 16.8 |
| N[C@H](Cc1ccccc1)C(=O)N[C@H](Cc1ccc(O)cc1)[C@H](O)C(=O)O [Compound 17, (2S,3R)-3-N--(R)-phenylalanylamino-2-hydroxy-4-p-hydroxy-phenylbutanoic acid] | 130 | 32.1 |
| CC(C)C[C@@H](N)C(=O)N[C@H](Cc1ccccc1)[C@H](O)C(=O)O [Compound 9, (2S,3R)-3-N--(R)-leucylamino-2-hydroxy-4-phenylbutanoic acid] | 2480 | 26.3 |
| NCC(=O)NCC(=O)N[C@H](Cc1ccccc1)[C@H](O)C(=O)O [Compound 4, (2S,3R)-3-N--glycylglycylamino-2-hydroxy-4-phenylbutanoic acid] | 240 | 10.6 |
